Experiments:
Type in all cases: in vivo, mouse
[1] = tested on: C57/BL6 WT mice subjected to TAC pressure overload; test: Body weight and heart weight in mice subjected to transverse aortic constriction (TAC); conditions: TAC 3 weeks, oral co-treatment 1 mg/g food, mean ± sem
Description: Male NOS3 null mice (NOS3^−/−) and C57/BL6 WT controls (8-11 weeks, Jackson Labs, Bar Harbor, Me., USA) were used. Pressure overload was produced by transverse aorta constriction (TAC). Briefly, The aortic arch was isolated by entering the extrapleural space between the second and third rib, and afterwards the transverse aorta was isolated between the right and left carotid arteries. A 7-0 prolene suture ligature was tied around the transverse aorta against a 27-gauge needle to produce a 65-70% constriction after the removal of the needle. After closing the chest, animals were extubated, and a subcutaneous injection of morphine sulphate 0.2 mg, was administered before they returned to their cages. Animal's ventilatory and circulatory status was checked every 30 minutes during the first 2 hours. Sham-operated mice underwent the same operation except for aortic constriction. […] Animals were randomized to receive placebo or BH4 (120 mg/kg/d) for the next 5 weeks. At the end of the study, i.e. at 9 weeks, animal were sacrificed to receive tissue or underwent in vivo PV-loop analysis. […] Control mice were subject to sham operations, and animals were studied 3-9 weeks following surgery. […]

[2] = tested on: C57/BL6 WT mice subjected to TAC pressure overload; test: Transthoracic echocardiography in conscious TAC mice; conditions: WT mice, TAC 3 weeks, oral co-treatment 1 mg/g food; mean ± sem
Description: Male NOS3 null mice (NOS3^−/−) and C57/BL6 WT controls (8-11 weeks, Jackson Labs, Bar Harbor, Me., USA) were used. Pressure overload was produced by transverse aorta constriction (TAC). Briefly, The aortic arch was isolated by entering the extrapleural space between the second and third rib, and afterwards the transverse aorta was isolated between the right and left carotid arteries. A 7-0 prolene suture ligature was tied around the transverse aorta against a 27-gauge needle to produce a 65-70% constriction after the removal of the needle. After closing the chest, animals were extubated, and a subcutaneous injection of morphine sulphate 0.2 mg, was administered before they returned to their cages. Animal's ventilatory and circulatory status was checked every 30 minutes during the first 2 hours. Sham-operated mice underwent the same operation except for aortic constriction. […] Animals were randomized to receive placebo or BH4 (120 mg/kg/d) for the next 5 weeks. At the end of the study, i.e. at 9 weeks, animal were sacrificed to receive tissue or underwent in vivo PV-loop analysis. […] Control mice were subject to sham operations, and animals were studied 3-9 weeks following surgery. An additional group of wild-type animals were subjected to TAC for 3 weeks while co-treated with oral tetrahydrobiopterin (BH4) (Sigma-Aldrich) (1 mg/g food) mixed in their rodent chow, providing 5 mg/day based on 4-6 g daily diet^8.
Two different BH4 treatment protocols are used. For experiments related to FIGS. 1-7, where prevention of cardiac indications is described BH4 is provided orally as a treatment starting 2 days after TAC surgery (once mice are again eating oral diet). For those figures related to treatment of established cardiac indications, FIGS. 8-23, BH4 is provided orally but this is delayed for 4 weeks to establish substantial cardiac hypertrophy, remodeling, and NOS-uncoupling. Then the treatment is provided for the remaining 5 week period.
For folate studies, C57/BL6 WT were treated with folate (10 mg/kg/day) or with placebo for a 9 week period during which time the hearts were exposed to TAC.
In vivo cardiac morphology was assessed by transthoracic echocardiography (Acuson Sequoia C256, 13 MHz transducer, Siemens) in conscious mice. M-mode left ventricular (LV) end-systolic and end-diastolic dimensions were averaged from 3-5 beats. Left ventricular ejection fraction (LVEF) and percent fractional shortening (% FS) were calculated as: LVEF=[(LVEDD)^3-(LVESD)^3]/(LVEDD)^3×100; % FS=(LVEDD−LVESD)/LVEDD×100. Wall thickness of lateral freewall and intraventricular septum were averaged. Studies and analysis were performed blinded to heart condition.

[3] = tested on: reactive oxygen species; test: Reactive oxygen species generation in TAC myocardium (luminol, lucigenin, DHE, DCF); conditions: WT mice, TAC 3 weeks, oral co-treatment
Experimental: Reactive oxygen species generation was examined by several independent methods. Superoxide production in left ventricular tissue homogenates was determined by luminol-enhanced chemiluminescence (EMD Biosciences). Flash frozen myocardium was homogenized in iced PBS buffer, centrifuged, and the precipitate re-suspended in assay buffer to a final concentration of 100 μM luminol following manufacturer's instructions. Phorbol-12-myristate-13-acetate or other oxidase stimulators were not used in the assay. Data were normalized by sample weight. In addition, fresh frozen left ventricular myocardium (8 μm slices) was incubated for 1 hour at 37° C. with florescent dyes 2′,7′-dichlorodihydro-fluorescein diacetate (DCF; Molecular Probes; 4 μM) (Invitrogen Corp.) reflecting hydrogen peroxide formation (DCF staining localizes principally to mitochondria within myocytes), dihydroethidium (DHE; Molecular Probes; 2 μM) which assesses O2^− formation (typically nuclear localization), and nitrotyrosine formation (polyclonal nitrotyrosine Ab, 1:100; Upstate), which can reflect formation of ONOO^−. Imaging was performed on a Zeiss inverted epifluorescence microscope attached to an argon-krypton laser confocal scanning microscope (UltraVIEW, Perkin Elmer Life Sciences, Inc.). […] Nitrotyrosine was also quantitatively assessed by ELISA assay (Oxis International).

With `Nc1nc2c(c(=O)[nH]1)NC(C(O)C(O)CO)CN2` (stereo not drawn) [H4N, tetrahydroneopterin] the “Heart Weight (HW)” value [1] was 231.3 ± 10.7 mg, the “Fractional Shortening” value [2] was 33.8 ± 5.3% and the “LV diameter Diastole” value [2] was 3.94 ± 0.19 mm. For the same compound, the “LV diameter Systole” value [2] was 2.70 ± 0.31 mm, the Wall thickness [2] was 0.98 ± 0.03 mm and the “reactive oxygen species generation (luminol chemiluminescence, DHE, DCF)” value [3] was “None of these changes were observed”.

From patent publication US20100004248A1, “Use of a Nitric Oxide Synthase Modulator for the Treatment of Cardiac Indications” (priority 2005, published 2010)
